Like-named read-outs stand apart in the source and are kept apart here.
How the values were obtained:
Fusarium culmorum = assay type: in vivo
Botrytis cinerea [1] = experiment: Assay B-8: Effect against Botrytis cinerea/tomato (Botrytis on tomatoes); assay type: in vivo; settings: Botrytis cinerea on tomato cv. Roter Gnom; 0.02% active substance, spray
Experimental: Assay B-8: Effect Against Botrytis cinerea/Tomato (Botrytis on Tomatoes) 4 week old tomato plants cv. Roter Gnom are treated with the formulated testcompound 0.02% active substance) in a spray chamber. Two days after application tomato plants are inoculated by spraying a spore suspension (1×10^5 conidia/ml) on the test plants. After an incubation period of 4 days at 20° C. and 95% r. h. in a greenhouse the disease incidence is assessed.

Septoria nodorum = experiment: Assay B-12: Effect against Septoria nodorum/wheat (Septoria leaf spot on wheat); assay type: in vivo; settings: Septoria nodorum on wheat cv. Arina, 0.02% active substance, spray
Pyricularia oryzae = assay type: in vivo; settings: Pyricularia oryzae on rice cv. Sasanishiki; 0.02% active substance, spray
Erysiphe graminis = experiment: Assay B-6: Effect against Erysiphe graminis on barley (powdery mildew); residual protective / systemic activity; assay type: in vivo; settings: 0.02% active substance spray (residual) or 0.002% soil (systemic), variant not stated
Experimental: Assay B-6: Effect Against Erysiphe graminis on Barley (Powdery Mildew on Barley) a) Residual Protective Activity […] The infected plants are placed in a greenhouse at 22°. 12 days after infection, the fungal attack is evaluated. b) Systemic Activity […] […] 48 hours later, the plants are dusted with conidia of the fungus. The infected plants are placed in a greenhouse at 22° C. 12 days after infection, the disease incidence is evaluated.

[2] = tested on: Pyrenophora teres (Helminthosporium); experiment: Assay B-10: Effect against Pyrenophora teres (Helminthosporium)/barley (net blotch on barley); assay type: in vivo; settings: Pyrenophora teres on barley cv. Regina, 0.02% active substance, spray
How it was run: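 One-week-old barley cv. Regina sprayed with formulated compound at 0.02% active substance, then inoculated 2 days later with 3×10^4 conidia/ml. Held 2 days at 20° C/95% r.h., then 2 days at 20° C/60% r.h.; disease incidence scored 4 days after inoculation.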

Botrytis cinerea [3] = experiment: Assay B-7: Botrytis cinerea/grape (Botrytis on grapes); assay type: in vivo; settings: Botrytis cinerea on grape seedlings cv. Gutedel; 0.02% active substance, spray
Experimental: Assay B-7: Botrytis cinerea/Grape (Botrytis on Grapes) 5 week old grape seedlings cv. Gutedel are treated with the formulated testcompound (0.02% active substance) in a spray chamber. Two days after application grape plants are inoculated by spraying a spore suspension (1×10^6 conidia/ml) on the test plants. After an incubation period of 4 days at 21° C. and 95% r. h. in a greenhouse the disease incidence is assessed.

Venturia inaegualis = experiment: Assay B-5: Residual protective activity against Venturia inaegualis on apples (scab on apple); assay type: in vivo; settings: Venturia inaegualis on apple seedlings cv. McIntosh; 0.02% active substance, spray
Experimental: Assay B-5: Residual Protective Activity Against Venturia inaegualis on Apples (Scab on Apple) 4 week old apple seedlings cv. McIntosh are treated with the formulated testcompound (0.02% active substance) in a spray chamber. One day after application apple plants are inoculated by spraying a spore suspension (4×10^5 conidia/ml) on the test plants. After an incubation period of 4 days at 21° C. and 95% r. h. the plants are placed for 4 days at 21° C. and 60% r. h. in a greenhouse. After another 4 day incubation period at 21° C. and 95% r. h. the disease incidence is assessed.

[4] = Fusarium culmorum, wheat seeds cv. Orestis in pouch, 0.002% active substance

Row | SMILES | melting point [°C] | B11 activity (Fusarium culmorum; [4]) | B8 activity (Botrytis cinerea [1]) | B12 activity (Septoria nodorum) | B9 activity (Pyricularia oryzae) | B6 activity (Erysiphe graminis) | B11 activity (Fusarium culmorum; in vivo) | pest or weed control at 0.02 % strength ([2]; 96 h, read-out: B10 activity) [%] | pest or weed control at 0.02 % strength (Septoria nodorum; Parastagonospora nodorum, 264 h, read-out: B12 activity) [%] | B10 activity [2] | B7 activity (Botrytis cinerea [3]) | B5 activity (Venturia inaegualis)
1 | CC(=O)Nc1cc(-c2ccnc(Nc3cccc(Cl)c3)n2)ccn1 [Compound 61] | 245 to 247 | + (the activity observed in the corresponding test system is 70% or more) |  |  |  |  |  |  |  |  |  | 
2 | CCC(COC)Nc1cc(-c2ccnc(Nc3cccc(Cl)c3)n2)ccn1 (stereo not drawn) [Compound 4] |  |  | + (the activity observed in the corresponding test system is 70% or more) | + (the activity observed in the corresponding test system is 70% or more) | + (the activity observed in the corresponding test system is 70% or more) | + (the activity observed in the corresponding test system is 70% or more) | + (key: +: the activity observed in the corresponding test system is 70% or more) |  |  |  |  | 
3 | CC(C)Nc1cc(-c2ccnc(Nc3cccc(Cl)c3)n2)ccn1 [Compound 68] | 184 to 185 | + (the activity observed in the corresponding test system is 70% or more) | + (the activity observed in the corresponding test system is 70% or more) |  |  |  |  | > 70 | > 70 |  |  | 
4 | CCC(CO)Nc1cc(-c2ccnc(Nc3cccc(Cl)c3)n2)ccn1 (stereo not drawn) [Compound 31] |  |  | + (the activity observed in the corresponding test system is 70% or more) |  |  |  | + (key: +: the activity observed in the corresponding test system is 70% or more) |  |  | + (the activity observed in the corresponding test system is 70% or more) | + (the activity observed in the corresponding test system is 70% or more) | + (the activity observed in the corresponding test system is 70% or more)
5 | CC(=Nc1cc(-c2ccnc(Nc3cccc(Cl)c3)n2)ccn1)N(C)C [Compound 66] |  |  | + (the activity observed in the corresponding test system is 70% or more) | + (the activity observed in the corresponding test system is 70% or more) | + (the activity observed in the corresponding test system is 70% or more) |  | + (key: +: the activity observed in the corresponding test system is 70% or more) |  |  | + (the activity observed in the corresponding test system is 70% or more) | + (the activity observed in the corresponding test system is 70% or more) | + (the activity observed in the corresponding test system is 70% or more)

From US7109197B2, “N-phenyl-4-(4-pyridyl)-2-pyrimidineamine derivatives” (Syngenta Crop Protection, Inc., priority 2000, dated 2006)
